Assay results taken from US10894777B2, “TG2 inhibitor piperazine compounds and uses thereof” (UNIVERSITY OF OTTAWA, priority 2016, dated 2021).

Experiments:
Assay type in all cases: cell-based, human
A431 cells [1] = assay: Migration (scratch wound closure) assay, A431 cells; settings: 20 μM
Method: In (A), it is shown that A431-derived ECS cells have elevated TG2 and mesenchymal markers. A431 cells (40,000 cells/well) were grown in spheroid media in monolayer conditions or as non-attached spheroids (ECS cells) for 10 d. Cells were harvested and lysates prepared for immunoblot. In (B), A431 cells were electroporated with 3 μg of control- or TG2-siRNA and at 72 h extracts were prepared to assay TG2 and EMT marker level. In (C), A431-derived ECS cells were electroporated with 3 μg of the indicated siRNA and then grown as spheroids for 96 h. […] In (D), A431 cells (500,000 cells/well) were plated in monolayer culture in spheroid media in 100 mm dishes. […] Confluent monolayers were then scratched with a 10-μL pipette tip, rinsed, and width of the wound was monitored for 0-14 h.
In (A), A431 cells were grown as monolayers or in ultralow attachment plates (spheroids) in spheroid medium. […] Spheroid number was counted on days 1, 2 and 3. […] Spheroid number and trypan-blue viable cell number were determined at the indicated times following NC9 addition. […] A wound was created and ability of the cells to close the wound was monitored with time. […]
Migration assay. […] Images were collected, at 0-18 h after the scratch using the 10× objective, and the width of the opening was measured as a function of time as an index of cell migration potential.

A431 cells [2] = assay: EMT marker immunoblot, A431 cells; settings: 20 μM, 48 h
Method: In (A), it is shown that A431-derived ECS cells have elevated TG2 and mesenchymal markers. A431 cells (40,000 cells/well) were grown in spheroid media in monolayer conditions or as non-attached spheroids (ECS cells) for 10 d. Cells were harvested and lysates prepared for immunoblot. In (B), A431 cells were electroporated with 3 μg of control- or TG2-siRNA and at 72 h extracts were prepared to assay TG2 and EMT marker level. In (C), A431-derived ECS cells were electroporated with 3 μg of the indicated siRNA and then grown as spheroids for 96 h. […] In (D), A431 cells (500,000 cells/well) were plated in monolayer culture in spheroid media in 100 mm dishes. The following day, at time zero, 0 or 20 μM NC9 was added with fresh addition of medium and NC9 at 24 h. At 48 h the cells were harvested and extracts prepared for immunoblot. In (E), A431 cells were pretreated in 0 or 20 μM NC9 for 2 h and then harvested and 25,000 cells were seeded in the upper chamber above a matrigel-coated membrane in 1 mL of growth medium containing 1% FCS in a Millicell chamber. The lower chamber was filled with growth medium containing 10% FCS. […] Confluent monolayers were then scratched with a 10-μL pipette tip, rinsed, and width of the wound was monitored for 0-14 h. […]

SCC-13 cells = assay: Trypan Blue viability assay, SCC-13 spheroids; settings: 0-20 μM, 0-72 hours
Method: Trypan Blue viability assay. SCC-13 cells were grown as spheroids in six well cluster dishes in spheroid medium for 8 days and then treated with 0-20 μM NC9. At 0, 24, 48, and 72 hours post-NC9 treatment, spheroids were counted, and all cells in the well were collected to prepare a single cell suspension in Hank's Balanced Salt Solution. Trypan Blue solution (0.5 mL, 0.4%) was added to a 15 mL conical tube with 0.3 mL of Hank's Balanced Salt Solution and 0.2 ml of cell suspension. After 10 min, 8 μL of the mixture was transferred to a hemocytometer to count viable and total cell number.

1321N cells = assay: Agarose colony formation assay, TG2-null 1321N cells; settings: 10 μM, 2 weeks
Method: (§1) Agarose colony formation assay. Agarose colony formation assay was conducted as described (Horman, S. R. et al., J. Biomol. Screen 18(10):1298-308, 2013; Zhang, K. et al., Tumour Biol. 35(3):2537-48, 2014) using 6-well plates and 5,000 cells in each well. 10 μM NC9 or DMSO was added to every layer at the start of the experiments. 2 mL liquid MEM containing 10 μM NC9 or DMSO was used to cover the agarose and it was changed 3 times a week. Colony growth was monitored every day and at the end of 10-15 days, the colonies were fixed with 4% paraformaldehyde, stained with 0.005% crystal violet, washed with PBS twice and 40 random pictures were taken from each treatment group. A person blinded for the treatments measured the area of the colonies using ImageJ program and the volumes were calculated from the area data under the assumption that the colonies are perfect spheres. The volumes were used to compare the effect of NC9 on colony growth.

[3] = tested on: shRNA-transduced U87, U251 and T98G cells; assay: Agarose colony formation assay, TG2 shRNA-transduced cells; settings: 10 μM, 2 weeks
Method: Lentiviral vectors. Lentiviral knockdown vectors were prepared and used as previously described (Gundemir, S. et al., PLoS ONE 4(7):e6123, 2009; Barde, I. et al., Curr. Protoc. Neurosci. Chapter 4, Unit 4.21, 1-23, 2010).
as §1

U251 cells = assay: Agarose colony formation assay, U251 cells; settings: 10 μM, 2 weeks
Method: as §1

## C=CC(=O)NCCCC[C@H](NC(=O)OCc1ccccc1)C(=O)NCCOCCOCCNS(=O)(=O)c1cccc2c(N(C)C)cccc12 [NC9]
A431 cells [1]
  cell migration / scratch wound closure: reduced cell migration
A431 cells [2]
  EMT markers expression: reduction in EMT markers expression
SCC-13 cells
  viable cell number (trypan blue exclusion): concentration-dependent reduction in viable cell number
1321N cells
  colony growth, 1321N: no effect
[3]
  growth-retarding effect when TG2 expression is silenced: completely lost
U251 cells
  colony growth, U251: significantly reduced the growth
